Values quoted from earlier work in patent US7291720B2, “Use of sublethal concentrations of anti-invasin compounds to therapeutically or prophylactically treat fungal infections” (priority 2000, dated 2007).

Experiments:
[1] = test system: susceptible isolate of C. albicans; settings: in vitro
[2] = about half necessitated discontinuation of therapy

OC(Cn1cncn1)(Cn1cncn1)c1ccc(F)cc1F [fluconazole]
concentration that reduces hyphal formation [1]: 0.1 µg/mL | patients with adverse reactions, possibly related to the treatment [2]: over 5%
